Counter-ions that a name gives are not always drawn.

Broadly, the melting point is the temperature of the solid-liquid transition.

`COc1cc(S[C@H](CCN)c2ccno2)c(Cl)cn1` (as salt: salt) [Example 15, γ-[(5-Chloro-2-methoxy-4-pyridinyl)thio]-(γ^5R)-5-isoxazolepropanamine (E)-butenedioate]: the melting point lay within 142 to 143 °C.

As for `COc1cc(O[C@H](CCN)c2ccon2)c(C#N)cn1.O=C(O)C(=O)O` [Example 25, 4-[[(1R)-3-Amino-1-(3-isoxazolyl)propyl]oxy]-6-methoxy-3-pyridinecarbonitrile Ethanedioate], the melting point lay in the range of 173 to 174 °C. The value for `Cc1ccc(C#N)c(SC(CCN)c2nocc2C)n1.O=C(O)C(=O)O` (stereo not drawn) [Example 26, 2-[[3-Amino-1-(4-methyl-3-isoxazolyl)propyl]thio]-6-methyl-3-pyridinecarbonitrile Ethanedioate] was 132 to 134 °C; that for `N#Cc1cnc(N)cc1S[C@H](CCN)c1ccno1.O=C(O)/C=C/C(=O)O` [Example 14, 6-Amino-4-[[(1R)-3-amino-1-(5-isoxazolyl)propyl]thio]-3-pyridinecarbonitrile (E)-butenedioate] was 160 to 163 °C. The value for `N#Cc1ccc(C(F)(F)F)nc1OC(CCCN)c1ccno1.O=C(O)/C=C/C(=O)O` (stereo not drawn) [Example 42, 2-[4-Amino-1-(5-isoxazolyl)butoxy]-6-(trifluoromethyl)-3-pyridinecarbonitrile (E)-butenedioate] was 155 to 157 °C; that for `Cc1cc(SC(CCN)c2scnc2Cl)c(C#N)cn1.O=C(O)/C=C/C(=O)O` (stereo not drawn) [Example 28, 4-[[3-Amino-1-(4-chloro-5-thiazolyl)propyl]thio]-6-methyl-3-pyridinecarbonitrile (E)-butenedioate] was 180 to 181 °C; that for `Cl.N#Cc1ccc(C(F)(F)F)nc1O[C@H](CCN)c1nccs1` [Example 12, 2-[[(1R)-3-Amino-1-(2-thiazolyl)propyl]oxy]-6-(trifluoromethyl)-3-pyridinecarbonitrile Hydrochloride] was 151 to 153 °C. Then `N#Cc1ccc(C(F)(F)F)nc1O[C@H](CCN)c1cc(Cl)no1.O=C(O)/C=C/C(=O)O` [Example 18, 2-[[(1R)-3-Amino-1-(3-chloro-5-isoxazolyl)propyl]oxy]-6-(trifluoromethyl)-3-pyridinecarbonitrile (E)-butenedioate], with 151 to 152 °C; and `N#Cc1ccc(C(F)(F)F)nc1O[C@H](CCN)c1ccon1.O=C(O)/C=C/C(=O)O` [Example 11, 2-[[(1R)-3-Amino-1-(3-isoxazolyl)propyl]oxy]-6-(trifluoromethyl)-3-pyridinecarbonitrile (E)-butenedioate], with 160 to 161 °C. For `Cc1cc([C@@H](CCN)Oc2nc(C(F)(F)F)ccc2C#N)no1` [Example 24, 2-[[(1R)-3-Amino-1-(5-methyl-3-isoxazolyl)propyl]oxy]-6-(trifluoromethyl)-3-peridinecarbonitrile Ethanedioate], the melting point is 163 to 165 °C.

As for `Cc1ccc(C#N)c(SC(CCN)c2ccns2)n1.O=C(O)C(=O)O` (stereo not drawn) [Example 21, 2-[[3-Amino-1-(5-isothiazolyl)propyl]thio]-6-methyl-3-pyridinecarbonitrile Ethanedioate], the melting point is 103 to 104 °C. The value for `Cc1ccc(C#N)c(S[C@H](CCN)c2cc(Cl)no2)n1.O=C(O)/C=C/C(=O)O` [Example 19, 2-[[(1R)-3-Amino-1-(3-chloro-5-isoxazolyl)propyl]thio]-6-methyl-3-pyridinecarbonitrile (E)-butenedioate] was 186 to 187 °C; that for `COc1cc(S[C@H](CCN)c2ccno2)c(C#N)cn1.O=C(O)/C=C/C(=O)O` [Example 16, 4-[[(1R)-3-Amino-1-(5-isoxazolyl)propyl]thio]-6-methoxy-3-pyridinecarbonitrile (E)-butenedioate] was 152 to 153 °C. For `Cc1ccc(C#N)c(S[C@H](CCN)c2ccno2)n1` [Example 6, 2-[[(1R)-3-Amino-1-(5-isoxazolyl)propyl]thio-6-methyl-3-pyridinecarbonitrile Ethanedioate], the melting point lay in the range of 165 to 167 °C. Then `Cc1ccc(C#N)c(OC(CCN)c2ccns2)n1.O=C(O)C(=O)O` (stereo not drawn) [Example 22, 2-[3-Amino-1-(5-isothiazolyl)propoxy]-6-methyl-3-pyridinecarbonitrile Ethanedioate], with 175 to 177 °C.

(Values after patent publication US20040176422A1, “Heteroarylheteroalkylamine derivatives and their use as inhibitors of nitric oxide synthase” (priority 2001, published 2004).)
